One test has as its system DISC1, HEK293 cells. Kind of test: Endogenous DISC1 protein level in HEK293 cells, western blot. It counts as cell-based, human. The settings on record: MG132 10–60 μM, 1 h, Figure 1b. The method, then: HEK293 cells were sourced from ATCC (CRL-1573) and cultured as described in the manufacturer’s protocol. DMEM (SIGMA) supplemented with 10% fetal bovine serum, 2 mM L-glutamine, […] penicillin-streptomycin at 37 °C in a humidified atmosphere of 5% CO2. The cells were passaged at about 80% confluency. Cells were transfected with plasmid DNA using polyfect transfection reagent (Qiagen) according to the manufacturer’s instructions. HEK293 cells were treated with the pharmacological agents cycloheximide (C7698) and MG132 (M7449) (Sigma-Aldrich) or DISC1 disruptor peptides (custom synthesized by Severn Biotech) as described in the text.
(§1) Briefly, detergent-soluble proteins were isolated from cells by disruption in lysis buffer 20 mM Tris-HCl (pH 7.5), 150 mM NaCl, 1 mM Na2EDTA, 1 mM EGTA, 1% triton, 2.5 mM sodium pyrophosphate, 1 mM β-glycerophosphate, 1 mM Na3VO4, 1 μg ml^–1 leupeptin, 10 mM DTT with Roche protease inhibitor, phosSTOP (Roche, 04906837001). Detergent-insoluble proteins were removed by centrifugation at 10 000 g for 10 min, and the soluble fraction was retained. Cell lysates were adjusted to equal protein amount (1 μg μl^–1) using cell lysis buffer. Cell lysates normalized for the protein concentration were incubated with mouse IgG (Millipore, 12487) Protein A agarose beads for 2 h at 4 °C. […] The complexes were analyzed on SDS PAGE. […]
In general terms: In western blotting, separated proteins are transferred to a membrane and probed.

A further test has as its system HA-DISC1. Description: DISC1 ubiquitination in transfected HEK293 cells, immunoprecipitation. It counts as cell-based, human. On the procedure:
as §1
Antibodies used in this study are detailed in Supplementary Table 1. […] Chemiluminescent images of immune detected bands were recorded on blue-light sensitive autoradiography X-ray films, which were then developed using the Kodak X-Omat Model 2000 processor and band intensities were quantified using image J. Alternatively blots were visualized using the Licor Odyssey system and quantified using LICOR Image Studio Lite (Licor Biosciences).
Figure 1 DISC1 turnover is regulated by the ubiquitin-proteosome system. […] HA-DISC1 levels were evaluated using densitometry (bar-chart, n=3). ‘Nt’ indicates no treatment control. […]

Experimental findings from paper PMC5984089, “FBXW7 regulates DISC1 stability via the ubiquitin-proteosome system” (Molecular Psychiatry, 2017) are described below.

Residues, ends and D or L forms follow the SMILES beside them. *: point of attachment. Cbz = O=C(OCc1ccccc1)*

Turning to `CC(C)C[C@@H](C=O)NC(=O)[C@H](CC(C)C)NC(=O)[C@H](CC(C)C)NC(=O)OCc1ccccc1` [MG132] (Cbz-Leu-Leu-Leu-aldehyde), in the test on DISC1, HEK293 cells, the “endogenous DISC1 level after MG132” value was “elevated”. Also, the “co-purification of HA-DISC1 with ubiquitin” value with HA-DISC1 (MG132 10 μM, 30 min exposure, Figure 1c) is given as “HA-DISC1 immunoprecipitates co-purify with ubiquitin after a 30 min exposure to MG132”. Moreover, in the test on HA-DISC1 (MG132 10 µM, Supplementary Figure 1a), the “DISC1 ubiquitination with over-expressed DISC1 or ubiquitin, further effect of MG132” value is “not enhanced further by MG132”.
